Measurements as given in paper PMC6761534 (Antimicrobial Agents and Chemotherapy, 2019).
Converted amounts (≈) assume the structure as drawn.

How the values were obtained:
[1] = target: mycobacterial F-ATP synthase (Mycobacterium bovis, UniProt A1KI93+A1KI99); assay: biochemical; design: species or system Mycobacterium bovis BCG
M. bovis BCG [2] = assay: microbe, parasite or virus in culture; format: cell-based; details: Mycobacterium tuberculosis variant bovis BCG, 24 h, read-out: IC50 ATP depletion (intrabacterial ATP)
M. bovis BCG [3] = assay: microbe, parasite or virus in culture; format: cell-based; details: Mycobacterium tuberculosis variant bovis BCG, 120 h, read-out: Growth inhibition MIC90
M. tuberculosis H37Rv = assay: microbe, parasite or virus in culture; format: cell-based; details: Mycobacterium tuberculosis, 168 h, read-out: M. tuberculosis H37Rv MIC90
M. smegmatis WT = assay: microbe, parasite or virus in culture; format: cell-based, Mycobacterium smegmatis; details: Mycolicibacterium smegmatis; for MIC50: 24 h, read-out: MIC50 ± SD, M. smegmatis WT
[4] = test system: M. smegmatis ε subunit overexpresser strain; assay: microbe, parasite or virus in culture; format: cell-based; details: Mycolicibacterium smegmatis, 24 h, 1 day, read-out: MIC50 ± SD, ε overexpresser
[5] = test system: mycobacterial F-ATP synthase (ATPase activity); assay: Continuous ATP hydrolysis assay with M. smegmatis inverted membrane vesicles; format: biochemical, Mycobacterium smegmatis
[6] = target: M. smegmatis F-ATP synthase (Mycolicibacterium smegmatis, UniProt A0R1Z9+A0R205); assay: biochemical; design: species or system Mycobacterium smegmatis

mycobacterial F-ATP synthase, sequence (A1KI93 whole entry, looked up): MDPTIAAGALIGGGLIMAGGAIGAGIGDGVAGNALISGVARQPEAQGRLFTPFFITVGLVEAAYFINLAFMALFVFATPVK
mycobacterial F-ATP synthase, sequence (A1KI99 whole entry, looked up): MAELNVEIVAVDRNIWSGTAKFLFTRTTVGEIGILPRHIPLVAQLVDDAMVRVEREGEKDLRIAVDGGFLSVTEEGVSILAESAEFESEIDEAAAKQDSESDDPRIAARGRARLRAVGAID

Structure (SMILES) | IC50 [1] [nM] | IC50 (M. bovis BCG [2]) [nM] | MIC90 (M. bovis BCG [3]) [nM] | MIC90 (M. tuberculosis H37Rv) [nM] | MIC90 (M. smegmatis WT) [nM] | MIC50 (M. smegmatis WT) [nM] | MIC50 [4] [nM] | Inhibition of ATPase activity ([5]; 100 μM) [%] | Inhibition of ATPase activity (in words) ([5]; 250 μM) | IC50 [6] [nM] | Inhibition of ATPase activity (in words) ([5]; BDQ-like) | Inhibition of ATPase activity ([5]; 250 μM) [%]
COc1nc2ccc(Br)cc2cc1[C@@H](c1ccccc1)[C@@](O)(CCN(C)C)c1cccc2ccccc12 [BDQ, Bedaquiline, reference compound] | 5.3 | 9.16 | 70 (≈ 38.9 ng/mL) | 400 (≈ 222 ng/mL) | 100 (≈ 55.6 ng/mL) | 12 ± 0.1 (≈ 6.67 ng/mL) | 24 ± 0.1 (≈ 13.3 ng/mL) | 78 | almost completely | 0.2 |  | 
COc1cc([C@](O)(CCN(C)C)[C@@H](c2cc3cc(Br)ccc3nc2OC)c2cc(OC)nc(OC)c2OC)cc(OC)n1 [TBAJ-876] | 0.031 | 0.89 | 7.2 (≈ 4.73 ng/mL) | 125 (≈ 82.2 ng/mL) | 6.3 (≈ 4.14 ng/mL) | 1.1 ± 0.05 (≈ 0.723 ng/mL) | 2.75 ± 0.02 (≈ 1.81 ng/mL) |  |  | 0.0059 | strong | 
COc1cc([C@](O)(CCN(C)C)[C@@H](c2cc3cc(Br)ccc3nc2OC)c2ccnc(OC)c2OC)cc(OC)n1 [compound 5307] | 0.091 | 0.48 | 3.6 (≈ 2.26 ng/mL) | 70 (≈ 43.9 ng/mL) | 3.5 (≈ 2.2 ng/mL) | 0.8 ± 0.05 (≈ 0.502 ng/mL) | 8 ± 0.1 (≈ 5.02 ng/mL) |  |  | 0.0087 | strong | 
COc1cc([C@](O)(CCN(C)C)[C@@H](c2cc3cc(Br)ccc3nc2OC)c2cccc3c2OCCO3)cc(OC)n1 [compound 5316] | 0.047 | 0.34 | 3.6 (≈ 2.25 ng/mL) | 70 (≈ 43.7 ng/mL) | 4.6 (≈ 2.87 ng/mL) | 0.6 ± 0.03 (≈ 0.375 ng/mL) | 1.68 ± 0.02 (≈ 1.05 ng/mL) |  |  | 0.011 | strong | 
COc1cc([C@](O)(CCN(C)C)[C@H](c2cc(OC(C)C)cnc2OC)c2cc3cc(Br)ccc3nc2OC)cc(OC)n1 [compound 5366] | 0.2 | 0.32 | 3.4 (≈ 2.23 ng/mL) | 30 (≈ 19.7 ng/mL) | 5.5 (≈ 3.61 ng/mL) | 2.1 ± 0.06 (≈ 1.38 ng/mL) | 14.3 ± 0.07 (≈ 9.37 ng/mL) | 36 |  | 0.0164 |  | 40
